Measured values reported in patent US20110318393A1, “Substituted Pyrazole Compounds” (MIIKANA THERAPEUTICS, INC., priority 2008, published 2011).

Tests used:
Type in all cases: biochemical
[1] = biological target: T1, N-terminal GST-tagged recombinant human Flt3, residues 564-end (Homo sapiens, UniProt P36888); assay: Flt3 kinase inhibition assay (33P-ATP filter assay); conditions: 40 minutes, room temperature; less than or equal to 100 nM
T1 construct: recombinant human Flt3, residues 564-end; GST (N); purchased Upstate USA Inc, Charlottesville, Va
T1 sequence (P36888 564-993 limits assumed): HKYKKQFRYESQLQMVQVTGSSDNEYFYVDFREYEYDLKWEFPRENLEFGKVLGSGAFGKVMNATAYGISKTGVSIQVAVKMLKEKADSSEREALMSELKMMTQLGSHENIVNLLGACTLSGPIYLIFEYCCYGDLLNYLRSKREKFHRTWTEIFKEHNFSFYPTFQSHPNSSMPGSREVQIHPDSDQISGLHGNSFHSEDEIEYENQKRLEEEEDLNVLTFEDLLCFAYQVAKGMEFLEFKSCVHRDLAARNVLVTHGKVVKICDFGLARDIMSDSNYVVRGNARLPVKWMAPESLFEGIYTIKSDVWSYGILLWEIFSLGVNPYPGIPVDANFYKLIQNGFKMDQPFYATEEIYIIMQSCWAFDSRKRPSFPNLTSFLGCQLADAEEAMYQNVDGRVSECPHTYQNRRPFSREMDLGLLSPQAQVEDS
Experimental: (§1) Compounds were assayed for Flt3 kinase inhibitory activity using N-terminal GST-tagged recombinant human Flt3, residues 564-end (Upstate USA Inc, 706 Forest Street, Charlottesville, Va.). Serial dilutions of compound were assayed in a final reaction volume of 25 μL by incubating a solution of the above Flt3 kinase (5-10 mU), 8 mM MOPS (3-(N-morpholino)propanesulfonic acid) pH 7.0, 0.2 mM EDTA (ethylenediamine tetracetic acid), 50 μM amino acid sequence EAIYAAPFAKKK (Upstate USA Inc, 706 Forest Street, Charlottesville, Va.), and 10 mM magnesium acetate and [γ-^33P-ATP] (specific activity of about 500 cpm/pmol, concentration as required). The reaction was initiated by the addition of the magnesium acetate and [γ-^33P-ATP] mixture. After incubation for 40 minutes at room temperature, the reaction was stopped by the addition of 5 μL of a 3% phosphoric acid solution. A 10 μL aliquote of the reaction was then spotted onto a P30 filtermat (PerkinElmer, Wellesley, Mass.) and washed three times for five minutes in 75 mM phosphoric acid and once in methanol prior to drying and scintillation counting. Inhibition of Flt3 activity was determined by comparison to assays that contained no inhibitor.

[2] = biological target: T2, N-terminal His6-tagged recombinant human KDR, residues 790-end (Homo sapiens, UniProt P35968); assay: KDR kinase inhibition assay (33P-ATP filter assay); conditions: 40 minutes, room temperature; less than or equal to 100 nM
T2 construct: recombinant human KDR, residues 790-end; His6 (N); purchased Upstate USA Inc, Charlottesville, Va
T2 sequence (P35968 790-1356 limits assumed): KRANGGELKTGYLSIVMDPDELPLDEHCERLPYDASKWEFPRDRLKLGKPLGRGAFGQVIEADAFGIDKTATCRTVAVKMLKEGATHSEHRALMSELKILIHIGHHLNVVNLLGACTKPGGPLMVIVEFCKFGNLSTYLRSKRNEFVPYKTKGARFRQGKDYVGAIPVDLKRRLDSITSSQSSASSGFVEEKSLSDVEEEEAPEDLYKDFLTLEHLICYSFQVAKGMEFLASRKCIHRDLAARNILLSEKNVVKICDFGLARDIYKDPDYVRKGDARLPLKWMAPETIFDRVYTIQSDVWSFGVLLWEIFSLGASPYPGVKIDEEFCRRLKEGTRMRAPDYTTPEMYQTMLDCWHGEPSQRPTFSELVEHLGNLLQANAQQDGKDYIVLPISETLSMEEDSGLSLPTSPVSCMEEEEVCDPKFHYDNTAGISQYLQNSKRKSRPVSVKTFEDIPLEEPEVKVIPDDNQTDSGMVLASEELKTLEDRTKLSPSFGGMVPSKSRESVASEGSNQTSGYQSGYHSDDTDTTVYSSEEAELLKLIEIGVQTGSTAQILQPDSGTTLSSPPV
Experimental: as §1, with “KDR” for “Flt3”, “His6-tagged” for “GST-tagged”, “KDR,” for “Flt3,”, “790-end” for “564-end”, “0.33 mg/mL myelin basic protein” for “50 μM amino acid sequence EAIYAAPFAKKK”

[3] = biological target: T3, N-terminal His-tagged human Src (Homo sapiens, UniProt P12931); assay: Src kinase inhibition assay (33P-ATP filter assay); conditions: 40 minutes, room temperature; less than or equal to 100 nM
T3 construct: His (N); purchased Upstate USA Inc, Charlottesville, Va
T3 sequence (P12931 whole entry): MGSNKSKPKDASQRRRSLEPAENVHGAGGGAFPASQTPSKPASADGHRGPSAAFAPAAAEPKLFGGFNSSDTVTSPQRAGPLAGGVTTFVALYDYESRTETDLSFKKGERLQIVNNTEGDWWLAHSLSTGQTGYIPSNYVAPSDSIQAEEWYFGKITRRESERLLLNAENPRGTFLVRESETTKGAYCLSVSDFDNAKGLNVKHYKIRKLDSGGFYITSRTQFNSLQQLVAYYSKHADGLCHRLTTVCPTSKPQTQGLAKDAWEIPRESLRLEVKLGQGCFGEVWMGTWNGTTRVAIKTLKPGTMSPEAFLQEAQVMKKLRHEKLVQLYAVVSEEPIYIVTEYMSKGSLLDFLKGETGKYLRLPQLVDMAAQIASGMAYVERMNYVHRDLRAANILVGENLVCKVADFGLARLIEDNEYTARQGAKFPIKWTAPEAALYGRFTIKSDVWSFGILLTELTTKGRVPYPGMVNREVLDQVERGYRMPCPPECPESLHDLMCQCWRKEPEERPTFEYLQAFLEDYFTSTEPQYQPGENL
Experimental: Compounds were assayed for Src kinase inhibitory activity using N-terminal His-tagged human Src (Upstate USA Inc, 706 Forest Street, Charlottesville, Va.). Serial dilutions of compound were assayed in a final reaction volume of 25 μL by incubating a solution of the above Src kinase (5-10 mU), 8 mM MOPS (3-(N-morpholino)propanesulfonic acid) pH 7.0, 0.2 mM EDTA (ethylenediamine tetracetic acid), 250 μM amino acid sequence KVEKIGEGTYGVVYK (Upstate USA Inc, 706 Forest Street, Charlottesville, Va.), and 10 mM magnesium acetate and [γ-^33P-ATP] (specific activity of about 500 cpm/pmol, concentration as required). The reaction was initiated by the addition of the magnesium acetate and [γ-^33P-ATP] mixture. After incubation for 40 minutes at room temperature, the reaction was stopped by the addition of 5 μL of a 3% phosphoric acid solution. A 10 μL aliquote of the reaction was then spotted onto a P30 filtermat (PerkinElmer, Wellesley, Mass.) and washed three times for five minutes in 75 mM phosphoric acid and once in methanol prior to drying and scintillation counting. Inhibition of Src activity was determined by comparison to assays that contained no inhibitor.

[4] = biological target: T4, recombinant Aurora A (Homo sapiens, UniProt O14965); assay: Aurora A (Aurora 2) inhibition assay, Z'-Lyte kinase assay; conditions: ATP 10 μM, 1 h; less than or equal to 100 nM
T4 construct: purchased Upstate, Lake Placid, N.Y
T4 sequence (O14965 1-403): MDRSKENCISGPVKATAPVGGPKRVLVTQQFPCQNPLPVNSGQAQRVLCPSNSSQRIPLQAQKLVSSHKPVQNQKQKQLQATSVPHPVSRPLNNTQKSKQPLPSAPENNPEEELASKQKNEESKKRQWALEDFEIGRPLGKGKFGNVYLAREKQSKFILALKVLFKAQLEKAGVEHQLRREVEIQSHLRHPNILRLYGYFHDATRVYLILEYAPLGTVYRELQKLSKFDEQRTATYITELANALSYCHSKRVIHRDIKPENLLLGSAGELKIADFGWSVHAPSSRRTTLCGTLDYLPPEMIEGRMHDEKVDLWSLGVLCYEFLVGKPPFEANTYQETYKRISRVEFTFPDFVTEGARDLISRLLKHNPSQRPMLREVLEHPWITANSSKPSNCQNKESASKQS
Experimental: Compounds were tested for their potency against recombinant Aurora A (Upstate, Lake Placid, N.Y.) using the PanVera Z′-Lyte kinase assay kit-Ser/Thr 1 peptide (Invitrogen, Carlsbad, Calif.). Assays were carried out in kinase assay buffer (50 mM HEPES, pH 7.5, 10 mM MgCl2, 5 mM EGTA, 0.05% Brij-35, 2 mM DTT). Test compounds were initially dissolved in DMSO at 100× the highest tested concentration, then serially diluted to 4× test concentrations in kinase assay buffer. Next, Aurora A (final concentration 200-500 ng/mL), Z′-Lyte Ser/Thr 1 peptide (final concentration 2 μM) and ATP (final concentration 10 μM) were added according to the manufacturer's instructions. Assays were carried out in half-area 96-well white polystyrene assay plates (Corning, Corning, N.Y.) in a final volume of 20 μl. The reaction was allowed to proceed for 1 h at room temperature in the dark, at which point the development reagent and stop reagent were added according to the manufacturer's instructions. Coumarin (Ex. 400 nm, Em. 465 nm) and fluorescein (Ex. 400 nm, Em. 565 nm) fluorescence values were measured on a SpectraFluor Plus plate reader (Tecan, Durham, N.C.). The emission ratio (coumarin/fluorescein) was determined and used to calculate the percent phosphorylation for each well. Wells containing substrate but no kinase and wells containing a phosphopeptide control were used to set 0% and 100% phosphorylation values, respectively. Typically 20-40% of the substrate was phosphorylated in wells without inhibitor. Dose-response curves of relative Aurora A activity vs. inhibitor concentration were plotted with Grafit (Erithacus Software, Horley, Surrey, UK).

Measured: IC50

Cc1cc(Nc2cc(N3CCN(c4ccccc4)CC3)nc(/C=C/c3ccccc3)n2)n[nH]1 [Compound 8, (E)-N-(5-methyl-1H-pyrazol-3-yl)-6-(4-phenylpiperazin-1-yl)-2-styrylpyrimidin-4-amine]
≤ 100 nM: [1]

Cc1cc(Nc2cc(N3CCN(CC4CCCO4)CC3)nc(/C=C/c3ccccc3)n2)n[nH]1 (stereo not drawn) [Compound 24, (E)-N-(5-methyl-1H-pyrazol-3-yl)-2-styryl-6-(4-((tetrahydrofuran-2-yl)methyl)piperazin-1-yl)pyrimidin-4-amine]
≤ 100 nM: all assays above

Cc1cc(Nc2cc(N3CC(N4CCOCC4)C3)nc(/C=C/c3ccccc3)n2)n[nH]1 [Compound 15, (E)-N-(5-methyl-1H-pyrazol-3-yl)-6-(3-morpholinoazetidin-1-yl)-2-styrylpyrimidin-4-amine]
≤ 100 nM: all assays above

Cc1cc(Nc2cc(N3CCC(O)(Cc4ccccc4)CC3)nc(/C=C/c3ccccc3)n2)n[nH]1 [Compound 16]
≤ 100 nM: [4] | [1]

Cc1cc(Nc2cc(N3CCN(c4ccc(C#N)cc4)CC3)nc(/C=C/c3ccccc3)n2)n[nH]1 [Compound 10, (E)-4-(4-(6-(5-methyl-1H-pyrazol-3-ylamino)-2-styrylpyrimidin-4-yl)piperazin-1-yl)benzonitrile]
≤ 100 nM: [1]

Cc1cc(Nc2cc(N3CCC(CN4CCCCC4)CC3)nc(/C=C/c3ccccc3)n2)n[nH]1 [Compound 30]
≤ 100 nM: all assays above

Cc1cc(Nc2cc(N3CC(N4CCCCC4)C3)nc(/C=C/c3ccccc3)n2)n[nH]1 [Compound 18, (E)-N-(5-methyl-1H-pyrazol-3-yl)-6-(3-(piperidin-1-yl)azetidin-1-yl)-2-styrylpyrimidin-4-amine]
≤ 100 nM: all assays above

COC1CCN(C2CN(c3cc(Nc4cc(C)[nH]n4)nc(/C=C/c4ccccc4)n3)C2)CC1 [Compound 1, (E)-6-(3-(4-methoxypiperidin-1-yl)azetidin-1-yl)-N-(5-methyl-1H-pyrazol-3-yl)-2-styrylpyrimidin-4-amine]
≤ 100 nM: all assays above

Cc1cc(Nc2cc(N3CCN(c4ccc([N+](=O)[O-])cc4)CC3)nc(/C=C/c3ccccc3)n2)n[nH]1 [Compound 12, (E)-N-(5-methyl-1H-pyrazol-3-yl)-6-(4-(4-nitrophenyl)piperazin-1-yl)-2-styrylpyrimidin-4-amine]
≤ 100 nM: [2] | [1]

Cc1cc(Nc2cc(N3CCN(C4CCCCC4)CC3)nc(/C=C/c3ccccc3)n2)n[nH]1 [Compound 9, (E)-6-(4-cyclohexylpiperazin-1-yl)-N-(5-methyl-1H-pyrazol-3-yl)-2-styrylpyrimidin-4-amine]
≤ 100 nM: all assays above

Cc1cc(Nc2cc(N3CCC(N4CCCC4)CC3)nc(/C=C/c3ccccc3)n2)n[nH]1 [Compound 2, (E)-N-(5-methyl-1H-pyrazol-3-yl)-6-(4-(pyrrolidin-1-yl)piperidin-1-yl)-2-styrylpyrimidin-4-amine]
≤ 100 nM: all assays above

Cc1cc(Nc2cc(N3CCN(C4CCN(C)CC4)CC3)nc(/C=C/c3ccccc3)n2)n[nH]1 [Compound 4, (E)-N-(5-methyl-1H-pyrazol-3-yl)-6-(4-(1-methylpiperidin-4-yl)piperazin-1-yl)-2-styrylpyrimidin-4-amine]
≤ 100 nM: all assays above

Cc1cc(Nc2cc(N3CCN(c4ccccn4)CC3)nc(/C=C/c3ccccc3)n2)n[nH]1 [Compound 14, (E)-N-(5-methyl-1H-pyrazol-3-yl)-6-(4-(pyridin-2-yl)piperazin-1-yl)-2-styrylpyrimidin-4-amine]
≤ 100 nM: [4] | [1]

Cc1cc(Nc2cc(N3CCC(N4CCCCC4)C3)nc(/C=C/c3ccccc3)n2)n[nH]1 (stereo not drawn) [Compound 23, (E)-N-(5-methyl-1H-pyrazol-3-yl)-6-(3-(piperidin-1-yl)pyrrolidin-1-yl)-2-styrylpyrimidin-4-amine]
≤ 100 nM: all assays above

Cc1cc(Nc2cc(N3CCC(O)(c4ccc(Cl)cc4)CC3)nc(/C=C/c3ccccc3)n2)n[nH]1 [Compound 11, (E)-4-(4-chlorophenyl)-1-(6-(5-methyl-1H-pyrazol-3-ylamino)-2-styrylpyrimidin-4-yl)piperidin-4-ol]
≤ 100 nM: [1]
